From patent publication US9266835B2, “Quinoline derivatives useful as CB-1 inverse agonists” (JANSSEN PHARMACEUTICA NV, priority 2014, dated 2016)

Assays:
[1] = biological target: Human CB1R (Cannabinoid receptor 1) (Homo sapiens (Human), UniProt P21554); assay: CB-1 in vitro cAMP assay (HTRF), inverse agonism; format: cell-based; details: mean where tested more than once
[2] = biological target: Human CB2R (Cannabinoid receptor 2) (Homo sapiens (Human), UniProt P34972); assay: CB-2 in vitro cAMP assay (HTRF), inverse agonism; format: cell-based; details: mean where tested more than once
Sequence of Human CB2R (Cannabinoid receptor 2) (P34972 whole entry): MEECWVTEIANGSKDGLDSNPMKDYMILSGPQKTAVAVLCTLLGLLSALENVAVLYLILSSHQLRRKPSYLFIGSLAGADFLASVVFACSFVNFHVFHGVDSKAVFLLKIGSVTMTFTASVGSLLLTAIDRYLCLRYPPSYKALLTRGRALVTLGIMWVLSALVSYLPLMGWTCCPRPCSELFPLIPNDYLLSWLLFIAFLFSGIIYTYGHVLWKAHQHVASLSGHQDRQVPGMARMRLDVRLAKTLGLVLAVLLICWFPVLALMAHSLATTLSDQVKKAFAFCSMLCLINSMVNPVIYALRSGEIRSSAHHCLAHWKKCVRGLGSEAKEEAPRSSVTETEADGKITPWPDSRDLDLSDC

Sequence of Human CB1R (Cannabinoid receptor 1) (P21554 whole entry): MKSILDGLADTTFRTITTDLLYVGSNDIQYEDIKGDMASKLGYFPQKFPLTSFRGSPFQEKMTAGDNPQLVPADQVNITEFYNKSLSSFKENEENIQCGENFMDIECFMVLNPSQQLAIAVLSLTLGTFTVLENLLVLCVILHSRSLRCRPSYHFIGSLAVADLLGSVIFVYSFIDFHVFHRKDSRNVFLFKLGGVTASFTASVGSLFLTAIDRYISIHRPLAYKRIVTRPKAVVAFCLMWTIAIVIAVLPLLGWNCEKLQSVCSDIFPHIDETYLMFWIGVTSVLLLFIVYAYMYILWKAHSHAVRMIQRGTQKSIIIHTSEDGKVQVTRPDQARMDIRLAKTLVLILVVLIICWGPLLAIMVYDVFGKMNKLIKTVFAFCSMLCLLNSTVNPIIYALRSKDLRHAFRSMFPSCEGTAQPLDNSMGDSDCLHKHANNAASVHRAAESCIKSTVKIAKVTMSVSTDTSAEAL

Compound	EC50 [1] [nM]	EC50 [2] [nM]
CC(C)(C)Oc1cc(/C=C/c2cccc(F)c2)c2cc(C(O)(c3ccc(Cl)cc3)c3ccsc3)ccc2n1 (stereo not shown) [Compound 518, (E)-(2-(tert-butoxy)-4-(3-fluorostyryl)quinolin-6-yl)(4-chlorophenyl)(thiophen-3-yl)methanol]	> 10000	540
O=S(=O)(Oc1cc(C2=CCN(S(=O)(=O)C(F)(F)F)CC2)c2cc(C(c3ccc(Cl)cc3)c3ccc(Cl)cc3)ccc2n1)C(F)(F)F [Compound 519, 6-(bis(4-chlorophenyl)methyl)-4-(1-((trifluoromethyl)sulfonyl)-1,2,3,6-tetrahydropyridin-4-yl)quinolin-2-yl trifluoromethanesulfonate]	> 10000	40
Clc1ccc(C(c2ccc3nccc(/C=C/c4ccccc4)c3c2)c2cscn2)cc1 (stereo not shown) [Compound 520, 6-[(4-Chlorophenyl)(1,3-thiazol-4-yl)methyl]-4-[(E)-2-phenylethenyl]quinoline]	169	> 10000
FC(F)(F)c1ccc(/C=C/c2ccnc3ccc(C(c4ccc(Cl)cc4)c4ccc(Cl)cc4)cc23)cc1 [Compound 521, 6-[Bis(4-chlorophenyl)methyl]-4-{(E)-2-[4-(trifluoromethyl)phenyl]-ethenyl}quinoline]	213	> 10000
CC(=O)N1CCN(c2cc(OS(=O)(=O)C(F)(F)F)nc3ccc(C(c4ccc(Cl)cc4)c4nccs4)cc23)CC1 (stereo not shown) [Compound 522, 4-(4-Acetylpiperazin-1-yl)-6-[(4-chlorophenyl)(1,3-thiazol-2-yl)methyl]quinolin-2-yl trifluoromethanesulfonate]	> 10000	> 10000
O=S(=O)(N1CCC(Nc2ccnc3c(Br)cc(C(c4ccc(Cl)cc4)c4ccc(Cl)cc4)cc23)CC1)C(F)(F)F [Compound 524, 6-(bis(4-chlorophenyl)methyl)-8-bromo-N-(1-((trifluoromethyl)sulfonyl)piperidin-4-yl)quinolin-4-amine]	12	180
CCOC(=O)CCCNc1cc(C(O)(c2ccc(Cl)cc2)c2ccc(Cl)cc2)cc2c(NC3CCN(S(=O)(=O)C(F)(F)F)CC3)cc(OC(C)(C)C)nc12 [Compound 529, Ethyl 4-({6-[bis(4-chlorophenyl)(hydroxy)methyl]-2-tert-butoxy-4-({1-[(trifluoromethyl)sulfonyl]-piperidin-4-yl}amino)quinolin-8-yl}amino)butanoate]	> 10000	> 10000
COCCOc1cc(NC2CCN(S(=O)(=O)C(F)(F)F)CC2)c2cc(C(c3ccc(Cl)cc3)c3ccc(Cl)cc3)ccc2n1 [Compound 530, 6-(bis(4-chlorophenyl)methyl)-2-(2-methoxyethoxy)-N-(1-((trifluoromethyl)sulfonyl)piperidin-4-yl)quinolin-4-amine]	23	> 10000
CC(C)(C)OC(=O)COc1cc(NC2CCN(S(=O)(=O)C(F)(F)F)CC2)c2cc(C(c3ccc(Cl)cc3)c3ccc(Cl)cc3)ccc2n1 [Compound 531, tert-Butyl ({6-[bis(4-chlorophenyl)methyl]-4-({1-[(trifluoromethyl)sulfonyl]-piperidin-4-yl}amino)quinolin-2-yl}oxy)acetate]	> 10000	> 10000
O=C(O)COc1cc(NC2CCN(S(=O)(=O)C(F)(F)F)CC2)c2cc(C(c3ccc(Cl)cc3)c3ccc(Cl)cc3)ccc2n1 [Compound 532, ({6-[Bis(4-chlorophenyl)methyl]-4-({1-[(trifluoromethyl)sulfonyl]-piperidin-4-yl}amino)quinolin-2-yl}oxy)acetic acid]	1280	6700
CNC(=O)COc1cc(NC2CCN(S(=O)(=O)C(F)(F)F)CC2)c2cc(C(c3ccc(Cl)cc3)c3ccc(Cl)cc3)ccc2n1 [Compound 533, 2-({6-[Bis(4-chlorophenyl)methyl]-4-({1-[(trifluoromethyl)sulfonyl]-piperidin-4-yl}amino)quinolin-2-yl}oxy)-N-methylacetamide]	38	> 10000
